The target of data set [1] is T1, Proprotein convertase subtilisin/kexin type 9 (Homo sapiens, UniProt Q8NBP7). Description: Inhibition of human PCSK9 using Alexa Fluor […] as substrate incubated for 2 hrs by FRET assay.
For data set [2], the target named is T1, Proprotein convertase subtilisin/kexin type 9. Description: Inhibition of human PCSK9 using Alexa Fluor […] as substrate incubated for 2 hrs by FRET plus assay.
In another data set the test system is Mast cell. Put plainly: Induction of rat mast cells degranulation activity at 100 uM incubated for 30 mins. It counts as functional, tissue-based.
Data set [3] can be described thus: AUC(0 to infinity) in Wistar Han rat at 5 mg/kg, id measured upto 24 hrs by LC-MS/MS analysis. It counts as ADME, organism-based. The arrangement: dose 5 mg/kg, time <=24. As to conditions: in vivo.
For data set [4], the target named is T1, Proprotein convertase subtilisin/kexin type 9. Description: Inhibition of human PCSK9 using Alexa Fluor […] as substrate incubated for 2 hrs by FRET ultra assay.
Data set [5] in a line: Tmax in Wistar Han rat at 5 mg/kg, id measured upto 24 hrs by LC-MS/MS analysis. In kind it is ADME, organism-based. As to conditions: in vivo.
The target of data set [6] is T2, Solute carrier organic anion transporter family member 1B1 (Homo sapiens, UniProt Q9Y6L6).
T2 sequence (Q9Y6L6 whole entry): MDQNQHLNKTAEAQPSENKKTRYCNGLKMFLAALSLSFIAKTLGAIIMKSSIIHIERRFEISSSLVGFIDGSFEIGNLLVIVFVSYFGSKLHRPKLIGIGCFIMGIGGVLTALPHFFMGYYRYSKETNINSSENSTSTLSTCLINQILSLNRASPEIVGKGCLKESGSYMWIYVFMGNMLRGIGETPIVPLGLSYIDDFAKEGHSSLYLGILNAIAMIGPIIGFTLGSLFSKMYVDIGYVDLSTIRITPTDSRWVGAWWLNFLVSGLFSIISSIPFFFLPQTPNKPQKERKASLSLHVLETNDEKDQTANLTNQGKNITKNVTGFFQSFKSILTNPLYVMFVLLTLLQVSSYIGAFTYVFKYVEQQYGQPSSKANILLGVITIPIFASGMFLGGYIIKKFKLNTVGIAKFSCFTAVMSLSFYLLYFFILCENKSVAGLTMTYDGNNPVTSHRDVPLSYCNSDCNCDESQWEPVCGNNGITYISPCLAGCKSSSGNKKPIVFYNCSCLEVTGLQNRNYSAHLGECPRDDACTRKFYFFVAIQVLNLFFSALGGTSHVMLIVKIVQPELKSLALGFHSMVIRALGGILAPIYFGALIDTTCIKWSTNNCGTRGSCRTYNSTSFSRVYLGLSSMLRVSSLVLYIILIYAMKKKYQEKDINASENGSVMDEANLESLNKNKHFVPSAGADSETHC
Put plainly: Inhibition of OATP1B1 (unknown origin) expressed in HEK293 cells assessed as reduction in OATP 1B1-mediated [3H]-pitavastatin uptake preincubated for 30 mins followed by [3H]-pitavastatin addition and measured after 2 mins by liquid scintillation analysis. In kind it is cell-based.

Data set [7] is described as follows: Cmax in Wistar Han rat at 5 mg/kg, id measured upto 24 hrs by LC-MS/MS analysis. In kind it is ADME, organism-based. Further details: dose 5 mg/kg, time <=24. As to conditions: in vivo.
Data set [8] is described as follows: AUC extrapolated in Wistar Han rat at 5 mg/kg, id measured upto 24 hrs by LC-MS/MS analysis. In kind it is ADME, organism-based. As to conditions: in vivo, other.
Data set [9] can be described thus: Bioavailability in Wistar Han rat at 5 mg/kg, id measured upto 24 hrs by LC-MS/MS analysis. It counts as ADME, organism-based. As to conditions: in vivo.
Data set [10] can be described thus: Half life in Wistar Han rat at 1 mg/kg, iv measured upto 24 hrs by LC-MS/MS analysis. In kind it is ADME, organism-based. As to conditions: in vivo.
The species named for data set [11] is Sus scrofa. Put plainly: Stability of the compound assessed as porcine pepsin-mediated parent compound depletion by measuring parent compound remaining after 1 hr by LC-MS/MS analysis.
The nature of data set [12]: Unbound clearance in Wistar Han rat at 1 mg/kg, iv measured upto 24 hrs by LC-MS/MS analysis. It counts as ADME, organism-based. As to conditions: in vivo.
The species entered for data set [13] is Sus scrofa. Put plainly: Stability of the compound assessed as porcine pancreatic elastase-mediated parent compound depletion by measuring parent compound remaining after 1 hr by LC-MS/MS analysis.
Data set [14] is described as follows: Clearance in Wistar Han rat at 1 mg/kg, iv measured upto 24 hrs by LC-MS/MS analysis. As to conditions: in vivo. In kind it is ADME, organism-based.
The next data set is filed under the species Bos taurus. Put plainly: Stability of the compound assessed as bovine pancreas alpha chymotrypsin-mediated parent compound depletion by measuring parent compound remaining after 1 hr by LC-MS/MS analysis.
The nature of data set [15]: AUC(0 to infinity) in Wistar Han rat at 1 mg/kg, iv measured upto 24 hrs by LC-MS/MS analysis. In kind it is ADME, organism-based. The arrangement: route intravenous, dose 1 mg/kg, time <=24. As to conditions: in vivo.
Data set [16] can be described thus: Stability of the compound assessed as bovine pancreatic trypsin-mediated parent compound depletion by measuring parent compound remaining after 1 hr by LC-MS/MS analysis. In kind it is ADME, Bos taurus. As to conditions: cattle, read-out: Stability.
Data set [17] in a line: Volume of distribution at steady state in Wistar Han rat at 1 mg/kg, iv measured upto 24 hrs by LC-MS/MS analysis. In kind it is ADME, organism-based. As to conditions: in vivo, read-out: Vdss.
Data set [18] in a line: Protein binding in Wistar Han rat at 1 mg/kg, iv measured upto 24 hrs by LC-MS/MS analysis. In kind it is ADME, organism-based. As to conditions: in vivo, read-out: PB (converted).

Calls of active or inactive are those of the source. No cut-off for these calls is given here.

T1 sequence (Q8NBP7 31-152 limits assumed): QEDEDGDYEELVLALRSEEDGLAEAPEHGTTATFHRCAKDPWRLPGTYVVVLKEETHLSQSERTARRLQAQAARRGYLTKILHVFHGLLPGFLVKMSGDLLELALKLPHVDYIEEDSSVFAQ
T1 sequence (Q8NBP7 153-692 limits assumed): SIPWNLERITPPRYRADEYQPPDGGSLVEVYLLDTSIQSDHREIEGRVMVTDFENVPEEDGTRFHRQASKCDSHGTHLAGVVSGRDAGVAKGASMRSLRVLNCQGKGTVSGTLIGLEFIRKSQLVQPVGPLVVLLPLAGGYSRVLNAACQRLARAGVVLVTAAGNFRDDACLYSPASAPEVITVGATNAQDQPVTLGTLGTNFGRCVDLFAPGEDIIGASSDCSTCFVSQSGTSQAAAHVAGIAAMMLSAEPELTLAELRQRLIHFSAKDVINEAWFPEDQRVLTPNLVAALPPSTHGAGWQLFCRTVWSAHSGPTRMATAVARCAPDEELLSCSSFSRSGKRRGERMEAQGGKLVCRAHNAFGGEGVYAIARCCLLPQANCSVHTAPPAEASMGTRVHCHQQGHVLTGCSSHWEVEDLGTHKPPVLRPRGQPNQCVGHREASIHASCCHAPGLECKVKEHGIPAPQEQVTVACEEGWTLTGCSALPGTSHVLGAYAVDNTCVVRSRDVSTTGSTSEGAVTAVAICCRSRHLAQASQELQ

For the molecule `COc1ccc(C[C@@H]2NC(=O)[C@H]([C@@H](C)OC)NC(=O)[C@@H]3[C@@H]4CCN3C(=O)[C@H](Cc3c[nH]c5ccc(F)cc35)NC(=O)[C@H](Cc3cccc(c3)C/C=C\CO4)NC(=O)[C@@H](C)NC(=O)[C@H](C)NC(=O)CCSCc3cccc(c3)CSCCNC(=O)[C@]3(C)CCCN3C2=O)cc1`, in data set [1], the Ki came out at 4.83 nM.
Take `COc1ccc(C[C@@H]2NC(=O)[C@H]([C@@H](C)O)NC(=O)[C@@H]3[C@@H]4CCN3C(=O)[C@@H]3Cc5cn(c6ccc(F)cc56)Cc5cn(nn5)-c5cc(cc(c5)CSCCC(=O)N[C@@H](CN)C(=O)N[C@H](C)C(=O)N[C@@H](Cc5cccc(c5)C/C=C\CO4)C(=O)N3)CSCCNC(=O)[C@]3(C)CCCN3C2=O)cc1`: the Ki in data set [2] was 0.037 nM. The result in the data set with Mast cell was inactive.
The molecule `COc1ccc(C[C@@H]2NC(=O)[C@H]([C@@H](C)O)NC(=O)[C@@H]3[C@@H]4CCN3C(=O)[C@@H]3Cc5cn(c6ccc(F)cc56)Cc5cn(nn5)-c5cc(cc(c5)CSCCC(=O)N[C@@H](CNC(=O)CCOCCOCCN)C(=O)N[C@H](C)C(=O)N[C@@H](Cc5cccc(c5)C/C=C/CO4)C(=O)N3)CSCCNC(=O)[C@]3(C)CCCN3C2=O)cc1` gave a total exposure AUC(0-inf) in [3] of 0.0683 µM·h. Further, the inhibitory constant (Ki) was 0.00813 nM in data set [4] and less than 0.129 nM in [1]. Further, the time of peak concentration (Tmax) in data set [5] was determined as 0 h. In data set [6], the EC50 amounted to 6000 nM. The highest level in data set [7] (Cmax) was 53.3 nM. Besides, the “%AUCextra” value in data set [8] is 19.6%. Besides, the outcome with Mast cell was inactive. This molecule returned a bioavailability in [9] of 1%.
Take `COc1ccc(C[C@@H]2NC(=O)[C@H]([C@@H](C)O)NC(=O)[C@@H]3[C@@H]4CCN3C(=O)[C@@H]3Cc5cn(c6ccc(F)cc56)Cc5cn(nn5)-c5cc(cc(c5)CSCCC(=O)N[C@@H](CN)C(=O)N[C@H](C)C(=O)N[C@@H](Cc5cccc(c5)C/C=C/CO4)C(=O)N3)CSCCNC(=O)[C@]3(C)CCCN3C2=O)cc1`: the total exposure AUC(0-inf) in data set [3] is 0.0215 µM·h; in data set [15] it was 0.964 µM·h. The molecule also showed a half-life in [10] of 5.9 h. Moreover, the Ki was 0.0094 nM in data set [4], 0.00826 nM in data set [2] and less than 0.129 nM in data set [1]. In addition, the time of peak concentration (Tmax) in data set [5] came out at 0.25 h. In addition, the Stability in the data set listed under Sus scrofa [11] came out at 100%; in the data set listed under Sus scrofa [13] it was 96.5%; in the data set filed under Bos taurus, 90%. Also, the CL free in data set [12] was 85 mL/min/kg. This molecule displayed a clearance in [14] of 12.3 mL/min/kg. In data set [6], the EC50 was 600 nM. This molecule also yielded a peak concentration (Cmax) in [7] of 12.4 nM. For the same molecule, the remaining at 1 h in data set [16] turned out to be 100%. In addition, in [8], the “%AUCextra” value is reported as 23.6%. In the data set on Mast cell, the outcome was inactive. Besides, the Vd in data set [17] was found to be 3 L/kg. Also, the fraction unbound at 24 h in [18] is 0.144. This molecule also returned a bioavailability in [9] of 0.45%.
For the molecule `COc1ccc(C[C@@H]2NC(=O)[C@H]([C@@H](C)OC)NC(=O)[C@@H]3[C@@H]4CCN3C(=O)[C@H](Cc3c[nH]c5ccc(F)cc35)NC(=O)[C@H](Cc3cccc(c3)CCCCO4)NC(=O)[C@@H](C)NC(=O)[C@H](C)NC(=O)CCSCc3cccc(c3)CSCCNC(=O)[C@]3(C)CCCN3C2=O)cc1`, in data set [1], the affinity, expressed as Ki, was 2.17 nM.
The same measure, in the same setting: the result for `COc1ccc(C[C@@H]2NC(=O)[C@H]([C@@H](C)O)NC(=O)[C@@H]3[C@@H]4CCN3C(=O)[C@H](Cc3c[nH]c5ccc(F)cc35)NC(=O)[C@H](Cc3cccc(c3)C/C=C\CO4)NC(=O)[C@@H](C)NC(=O)[C@H](C)NC(=O)CCSCc3cccc(c3)CSCCNC(=O)[C@]3(C)CCCN3C2=O)cc1` reads 4.66 nM.
As for `COc1ccc(C[C@@H]2NC(=O)[C@H]([C@@H](C)OC)NC(=O)[C@@H]3[C@@H]4CCN3C(=O)[C@H](Cc3c[nH]c5ccc(F)cc35)NC(=O)[C@H](Cc3cccc(c3)C/C=C\CO4)NC(=O)[C@@H](CN)NC(=O)[C@H](C)NC(=O)CCSCc3cccc(c3)CSCCNC(=O)[C@]3(C)CCCN3C2=O)cc1`, the inhibition constant (Ki) worked out at 2.25 nM in data set [2] and 1.16 nM in data set [1].
`COc1ccc(C[C@@H]2NC(=O)[C@H]([C@@H](C)O)NC(=O)[C@@H]3[C@@H]4CCN3C(=O)[C@H](Cc3c[nH]c5ccc(F)cc35)NC(=O)[C@H](Cc3cccc(c3)C/C=C/CO4)NC(=O)[C@@H](C)NC(=O)[C@H](C)NC(=O)CCSCc3cccc(c3)CSCCNC(=O)[C@]3(C)CCCN3C2=O)cc1`: the Ki in [2] is 0.25 nM; in data set [1] it was 0.43 nM.
For the molecule `COc1ccc(C[C@@H]2NC(=O)[C@H]([C@H](C)O)NC(=O)[C@@H]3[C@@H]4CCN3C(=O)[C@@H]3Cc5cn(c6ccc(F)cc56)Cc5cn(nn5)-c5cc(cc(c5)CSCCC(=O)N[C@@H](C)C(=O)N[C@@H](CNC(=O)CCOCCOCCNC(=O)CCCC[C@@H]5SC[C@H]6NC(=O)N[C@@H]56)C(=O)N[C@@H](Cc5cccc(c5)C/C=C/CO4)C(=O)N3)CSCCNC(=O)[C@]3(C)CCCN3C2=O)cc1`, the inhibition constant Ki is 0.0006 nM in data set [4], less than 0.01 nM in data set [2] and less than 0.129 nM in [1].
With `COc1ccc(C[C@@H]2NC(=O)[C@H]([C@H](C)OC)NC(=O)[C@@H]3[C@@H]4CCN3C(=O)[C@H](Cc3c[nH]c5ccc(F)cc35)NC(=O)[C@H](Cc3cccc(c3)C/C=C/CO4)NC(=O)[C@H](C)NC(=O)[C@H](CN)NC(=O)CCSCc3cccc(c3)CSCCNC(=O)[C@]3(C)CCCN3C2=O)cc1`, the inhibition constant (Ki) in data set [2] was 0.23 nM; in [1] it was 0.45 nM. In addition, the result with Mast cell was inactive.
In data set [1], `COc1ccc(C[C@@H]2NC(=O)[C@H]([C@H](C)OC)NC(=O)[C@@H]3[C@@H]4CCN3C(=O)[C@H](Cc3c[nH]c5ccc(F)cc35)NC(=O)[C@H](Cc3cccc(c3)C/C=C\CO4)NC(=O)[C@H](C)NC(=O)[C@H](CN)NC(=O)CCSCc3cccc(c3)CSCCNC(=O)[C@]3(C)CCCN3C2=O)cc1` showed a Ki of 4.36 nM.
`COc1ccc(C[C@@H]2NC(=O)[C@H]([C@@H](C)OC)NC(=O)[C@@H]3[C@@H]4CCN3C(=O)[C@H](Cc3c[nH]c5ccc(F)cc35)NC(=O)[C@H](Cc3cccc(c3)C/C=C/CO4)NC(=O)[C@@H](CN)NC(=O)[C@H](C)NC(=O)CCSCc3cccc(c3)CSCCNC(=O)[C@]3(C)CCCN3C2=O)cc1`: the Ki in [2] was found to be 0.16 nM; in data set [1], 0.2 nM.

As usually defined, the Ki is the equilibrium dissociation constant of an inhibitor or competing ligand from its target. The AUC(0-inf) is the area under the concentration-time curve extrapolated to infinity. Read a low AUC(0-inf) as low exposure. The Tmax is the time at which the peak concentration occurs. In general, EC50 refers to the concentration needed to bring the measured effect to its halfway point. The term Cmax denotes the highest concentration seen after dosing. As a reminder, the bioavailability is the share of a dose that reaches the circulation, judged against a reference dose that is usually intravenous. As usually defined, the half-life is the time in which the quantity being followed falls by half. A high value points to slow decline. As a reminder, the clearance is the rate of elimination divided by the concentration. The low end stands for a low capacity for elimination, the high end for a high capacity for elimination.
